Experimental data published in a melting point compilation (Tetko et al.; mined from patent text by program, amines drawn as free bases though some values may be those of a salt).

| Compound | melting point [°C] |
| --- | --- |
| CNC(Cc1cc(Cl)ccc1N)c1sccc1C (configuration not stated) | 59 to 61 |
| C=CCC1(Cc2ncn(C(c3ccccc3)(c3ccccc3)c3ccccc3)c2C)CCc2c(C)c3ccccc3n2C1=O (configuration not stated) | 83 to 85 |
| CCCCCCC(=N)NC(=S)Nc1ccc(Br)cc1Br | 86 to 88 |
| CCOC(=O)C(=CNC1=NN(c2ccc(Cl)cc2)CC1)C(=O)OCC | 159 to 162 |
| COCCOCOc1c(Cl)cc(C=O)c(Cl)c1OCOCCOC | 50 |
| COc1cc(Nc2c(C#N)cnc3cc(-c4csc(C=O)c4)sc23)c(Cl)cc1Cl | 259 to 261 |
| COC(=O)c1ccc(NC(=O)c2sc3ccc(OC)cc3c2OC(C)C)cc1O | 158 to 160 |
| CCCCC1CCC2(C)C(=CCC3C4CCC(=O)C4(C)CCC32)C1 (configuration not stated) | 84 to 86 |
| Cc1ccc2[nH]c3c(c2c1)C(C(=O)O)CCC3 (configuration not stated) | 194 to 197 |
| CC1(C)C=C(c2c(N)c(=O)c2=O)c2cc(C#N)ccc2O1 | > 250 |
| CSC(C)(C)c1nnc(N)s1 | 195 to 197 |
| CN1CCN(c2cc3c(cc2F)c(=O)c(C(=O)O)cn3C2CSC2)CC1 | 231 to 237 |
| Cc1oc2cc(C=O)ccc2c1C | 73 to 74 |
| CCCCc1nnc2c(NC3CCCC3)nc3ccccc3n12 | 195 to 197 |
| COC(=O)[C@H](Cc1ccc(NC(=O)c2c(Cl)cccc2Cl)cc1)NC(=O)C1(CCNC(C)=O)CCCC1 | 190 to 194 |
| C[C@H](N)C(=O)NC(C)(Cc1ccc(F)cc1)c1ccc(F)cc1 (some centres not stated) | 134 to 135 |
| CCOCCS(=O)(=O)N1CC[C@@H](C(=O)N(C)Cc2cc(C(F)(F)F)cc(C(F)(F)F)c2)[C@H](c2ccc(F)cc2C)C1 (relative stereo) | 151 to 153 |
| COc1ccc(-c2nc(C#N)c[nH]2)cc1 | 219 to 220 |
| CCOP(=O)(CCCCCCCOc1nc(-c2ccccc2)c(-c2ccccc2)n1-c1ccccc1)OCC | 76 to 77 |
| COc1cc([C@H]2CC[C@H](c3cc(OC)c(OC)c(OC)c3)C2=O)cc(OC)c1OC (relative stereo) | 140 to 142 |
| Cc1nc(N)nc(N)c1-c1c(Cl)cccc1Cl | 250 |
| O=C(O)Cc1cc(C(=O)c2ccc(F)cc2)ccc1O | 218 |
| Cc1nc(C(F)(F)F)ccc1C(=O)C1=C(O)C2CCC(C2)C1=O (configuration not stated) | 75 to 77 |

| Compound | melting point [°C] |
| --- | --- |
| COc1ccc2c(N3CCCNCC3)noc2c1 | 74 to 75 |
| Nc1cc(C(=O)O)cc(S(N)(=O)=O)c1Oc1cccc(C(F)(F)F)c1 | 270 |
| Cc1cc(C)cc(SCCC(=O)O)c1 | 69 to 70 |
| NC(=S)C=C(N)CCOCc1ccccc1 | 93 to 94 |
| CCCCCCCCc1ccc(OCC(O)Cn2cccn2)cc1 (configuration not stated) | 88 |
| CC(c1oc2ccccc2c(=O)c1-c1cccc(F)c1)n1nc(-c2ccc(Cl)s2)c2c(N)ncnc21 (configuration not stated) | 226 to 229 |
| CCC(=O)NCC1CCN(CCOc2ccccc2)CC1 | 85 to 86 |
| Cc1ccc2c(c1)oc1c(C(=O)NC3C4CC5CC(C4)CC3C5)nn(-c3ccc(Cl)cc3Cl)c12 (configuration not stated) | 209 to 211 |
| CC(C)(O)c1cc(Cn2cncn2)cc(C(C)(C)C#N)c1 | 152 to 154 |
| CN1CCc2c(Cl)ccc3c4c(n(c23)CC1)CCC4 | 138 to 140 |
| COc1ccc(-c2nc3c(N)cccc3n2Cc2c(F)cccc2F)c(F)c1 | 200 to 202 |
| Cc1ccc(C(CO)c2ccc(C(C)C)cc2)c(O)c1C (configuration not stated) | 83 to 84 |
| CNc1nc(C)c(-c2ccnc(Nc3cccc(S(=O)(=O)NCCO)c3)n2)s1 | 189 to 190 |
| CN(C)C(=O)c1cc(O)c2nc(C(F)(F)F)n(C)c2c1 | 243 to 244 |
| CCNc1nc(-c2cccc(C3=Nc4cc(N(C)C)c(Cl)cc4NC(=O)C3)c2)cs1 | 122 to 123 |
| CCc1nn(C2CCCC2)c2cc(C(=O)NCCC(=O)NO)ccc12 | 166 to 169 |
| Cn1cc(C(=O)O)c(=O)c2cc3cc(F)c(N4CCNC(c5ccc(OCCO)cc5)C4)cc3nc21 (racemic) | 276 |
| CCc1noc(-c2cc3c4cc(S(=O)(=O)N(C)C)ccc4n(CCCCl)c3cn2)n1 | 223 to 224 |
| COc1ccc(Sc2cc3c(cc2Cl)C=C(C(=O)O)C(C(F)(F)F)O3)cc1 (configuration not stated) | 239 to 242 |
| O=C(C=Cc1ccc(-c2ccc(OCCCN3CCCCC3)cc2)cc1)N1CCCCC1 | 146 to 150 |
| CCOC(=O)CNC(=O)/C=C/S(=O)(=O)c1ccccc1 | 156 to 157 |
| COc1ccc(-c2cc3cc(C4=NNC(=O)CC4)ccc3[nH]2)cc1 | 262 to 264 |
| Cc1nc(-c2cccc(C(=O)O)c2)sc1C(=O)O | 295 to 296 |

Next, values leading:

| melting point [°C] | Compound |
| --- | --- |
| 236 | O=C(Nc1ccccn1)c1c(C(F)(F)F)nc2c(C(F)(F)F)cccc2c1O |
| 164 to 168 | COc1ccc(NC(=O)c2ccc(C(C)(C)C#N)cc2)cc1 |
| 170 | O=C(O)CCc1cccc(NC(=O)NCC(=O)N2[C@@H](c3ccccc3)CC[C@H]2c2ccccc2)c1 |
| 150 to 152 | COC(=O)C1=C(C)Nc2ccccc2SC1c1ccc([N+](=O)[O-])cc1 (configuration not stated) |
| 180 to 181 | CC(C)c1ccc(C(=O)C2c3ccccc3Oc3ccccc32)c(C(C)C)c1OS(N)(=O)=O |
| 169 | CCOc1cc(C(CC(N)=O)N2Cc3ccccc3C2=O)ccc1OC (configuration not stated) |
| 42 to 43 | CC(=O)c1ccccc1Cc1ccccc1 |
| 197 to 199 | CCOC(=O)c1cccc(Nc2nccc(-c3cccnc3)n2)c1 |
| 128 | CCCCCn1c(C2=CC(=O)c3ccccc3C2=O)ccc1C1=CC(=O)c2ccccc2C1=O |
| 108 to 109 | O=[N+]([O-])c1cnccc1NCc1ccccc1F |
| 192 to 194 | NC1C(=O)N(CC(O)C(F)(F)F)c2ccccc2-c2ccccc21 (configuration not stated) |
| 208 to 209 | CCNc1nc(N)nc(-c2ccccc2)c1-c1ccc(=O)n(C(C)C)n1 |
| 48 to 49 | Nc1ccc(Sc2ccccc2)cc1F |
| 179 to 180 | O=C(CCCl)Nc1ccc2c(c1NC(=O)CCCl)C(=O)c1ccccc1C2=O |
| 46.5 to 47.5 | NCc1nc2ccccc2o1 |
| 118 to 121 | Cn1ncc(SCc2ccccc2)c(Br)c1=O |
| 91 to 95 | CSc1ccc(/C(=C/CO)c2ccc(I)cc2)cc1 |
| 143 to 145 | OCC1c2ccccc2-c2c1c1ccccc1c1ccccc21 (configuration not stated) |
| 118 to 122 | Clc1ccccc1N1CCN=C1C(Cn1ccnc1)c1ccccc1 (configuration not stated) |
| 166 to 168 | CC(=O)Nc1nc(C)c(CCN2CCN(C(c3ccccc3)c3ccccc3)CC2)s1 |
| 252 to 253 | CC(C)(C)c1ccc(C(=O)Nc2cn3cc(-c4ccccc4)ccc3n2)cc1 |
| 182 to 183 | Cc1ccc(-n2ccc(=O)c(-c3ccnn3-c3ccccc3)n2)cc1 |
| 250 to 252 | Cc1ccccc1C(=O)Nc1ccc(C(=O)N2CCCC(NC(=O)Cn3ccnc3)c3ccccc32)cc1 (configuration not stated) |
| 145 to 147 | C=C1c2ccccc2CC(NO)c2ccccc21 (configuration not stated) |
| 230 to 232 | CC(=O)NNc1ccc(-n2c(-c3ccccc3)csc2=S)cc1 |
| 142 to 144 | CC(=O)N1CCC(=O)C(C(c2ccc(C)cc2)c2ccc(C)cc2)C1 (configuration not stated) |
